The values that follow come from US8846669B2, “Oxazolidinone derivative and medical composition containing same” (Legochem Biosciences, Inc., priority 2011, dated 2014).

Test in all cases: In vitro antibacterial activity, broth microdilution MIC90
What all share (type): cell-based
A general note: In broth dilution the organism is exposed to a series of concentrations in liquid medium.

The subject of experiment [1] is Vancomycin Resistant Enterococcus faecium. On the procedure:
(§1) MIC90 was measured by broth microdilution method based on CLSI standards [reference: Clinical and Laboratory Standards Institute Document. (2000) Methods for Dilution Antimicrobial Susceptibility Test for Bacteria that Grow Aerobically-Fifth Edition: M7-A5. CLSI, Villanova, Pa.].
(§2) Activities of 12 strains including Staphylococcus aureus, Methicillin Resistant Staphylococcus aureus, Staphylococcus epidermidis, Methicillin Resistant Staphylococcus epidermidis, Enterococcus faecalis, Vancomycin Resistant Enterococcus faecalis, Linezolid and Vancomycin Resistant Enterococcus faecalis, Enterococcus faecium, Vancomycin Resistant Enterococcus faecium, Linezolid and Vancomycin Resistant Enterococcus faecium, and Moraxella catarrhalis, were measured, and results are shown in Table 1 below.
(§3) The final concentration of test material in the antibacterial test was from 0.063 μg/mL (minimum) to 128 μg/mL (maximum), and the final concentration of DMSO used as an excipient was 2.5% (V/V). Linezolid represented by Formula B below (manufactured by Pfizer) was used as a control and bacterial activity thereof was compared with those of the test materials.

For the next experiment, the system named is Enterococcus faecalis. On the procedure: as §1, §2, §3
In experiment [2] the test system is Linezolid and Vancomycin Resistant Enterococcus faecium (strain 11). Here is the method: as §1, §2, §3
Experiment [3] concerns Linezolid and Vancomycin Resistant Enterococcus faecium (strain 10). Here is the method: as §1, §2, §3
Experiment [4] has as its system Staphylococcus epidermidis. On the procedure: as §1, §2, §3
Experiment [5] relates to Methicillin Resistant Staphylococcus aureus. Here is the method:
as §1, §2, §3

A further experiment relates to Staphylococcus aureus. On the procedure: as §1, §2, §3
The subject of experiment [6] is Linezolid and Vancomycin Resistant Enterococcus faecalis. On the procedure: as §1, §2, §3
In experiment [7] the test system is Methicillin Resistant Staphylococcus epidermidis. Here is the method:
as §1, §2, §3

For the next experiment, the system named is Enterococcus faecium. Here is the method: as §1, §2, §3
In the next experiment the test system is Moraxella catarrhalis. On the procedure: as §1, §2, §3
The test system of experiment [8] is Vancomycin Resistant Enterococcus faecalis. Here is the method: as §1, §2, §3
Setting [9] is: Enterococcus faecium, strain 9, E. faecium VanA, read-out: MIC90.
Where [10] appears, read: Enterococcus faecalis, strain 5, E. faecalis, read-out: MIC90.
Setting [11] is: Enterococcus faecium, strain 11, E. faecium VanA LR, read-out: MIC90.
Setting [12] is: Enterococcus faecium, strain 10, E. faecium VanA LR, read-out: MIC90.
[13] abbreviates: Staphylococcus epidermidis, strain 3, S. epidermidis, read-out: MIC90.
Where [14] appears, read: Staphylococcus aureus, strain 2, S. aureus MR, read-out: MIC90.
The mark [15] stands for this setting: Staphylococcus aureus, strain 1, S. aureus, read-out: MIC90.
The mark [16] stands for this setting: Enterococcus faecalis, strain 7, E. faecalis VanA LR, read-out: MIC90.
[17] abbreviates: Staphylococcus epidermidis, strain 4, S. epidermidis MR, read-out: MIC90.
The mark [18] stands for this setting: Enterococcus faecium, strain 8, E. faecium, read-out: MIC90.
The mark [19] stands for this setting: Moraxella catarrhalis, strain 12, M. catarrhalis, read-out: MIC90.
[20] abbreviates: Enterococcus faecalis, strain 6, E. faecalis VanA, read-out: MIC90.

Converted amounts (≈) assume the structure as drawn. Like-named read-outs stand apart in the source and are kept apart here.

By MIC90 is commonly meant the lowest concentration that inhibits either 90% of growth or 90% of the strains tested, depending on the study. In the case of `CC(=O)NC[C@H]1CN(c2ccc(-c3ccc(N4C=NN(C)CC4)nc3)c(F)c2)C(=O)O1` [Compound 3], the MIC90 is 0.125 µg/mL (≈ 0.293 µM) in [1] (Enterococcus faecium); 0.25 µg/mL (≈ 0.586 µM) in the experiment with Enterococcus faecalis (Enterococcus faecalis); 0.5 µg/mL (≈ 1.17 µM) in experiment [2] (Enterococcus faecium); 0.5 µg/mL (≈ 1.17 µM) in experiment [3] (Enterococcus faecium); 0.125 µg/mL (≈ 0.293 µM) in [4] (Staphylococcus epidermidis); 0.5 µg/mL (≈ 1.17 µM) in experiment [5] (Staphylococcus aureus). For the same compound, the MIC90 turned out to be 0.063 µg/mL (≈ 0.148 µM) in the experiment on Staphylococcus aureus (Staphylococcus aureus); 0.5 µg/mL (≈ 1.17 µM) in experiment [6] (Enterococcus faecalis); 0.5 µg/mL (≈ 1.17 µM) in [7] (Staphylococcus epidermidis); 0.063 µg/mL (≈ 0.148 µM) against Enterococcus faecium (Enterococcus faecium); 0.25 µg/mL (≈ 0.586 µM) in the experiment with Moraxella catarrhalis (Moraxella catarrhalis); 0.125 µg/mL (≈ 0.293 µM) in [8] (Enterococcus faecalis). The “antibacterial activity against linezolid-resistant bacteria (in words)” value in experiment [6] (Enterococcus faecalis and Enterococcus faecium which are resistant to linezolid) is “very high antibacterial activity”.

`CC(=O)NC[C@H]1CN(c2ccc(-c3ccc(C4=NOCCN4C)nc3)c(F)c2)C(=O)O1` [Compound 69]: the MIC90 in experiment [1] (setting [9]) is 1 µg/mL (≈ 2.34 µM); in the experiment on Enterococcus faecalis (setting [10]), 1 µg/mL (≈ 2.34 µM); in [2] (setting [11]), 4 µg/mL (≈ 9.36 µM); in [3] (setting [12]) it was 4 µg/mL (≈ 9.36 µM); in [4] (setting [13]), 0.5 µg/mL (≈ 1.17 µM); in experiment [5] (setting [14]), 2 µg/mL (≈ 4.68 µM). For the same compound, the MIC90 in the experiment on Staphylococcus aureus (setting [15]) was 0.5 µg/mL (≈ 1.17 µM); in experiment [6] (setting [16]), 2 µg/mL (≈ 4.68 µM); in experiment [7] (setting [17]) it was 2 µg/mL (≈ 4.68 µM); in the experiment on Enterococcus faecium (setting [18]) it was 1 µg/mL (≈ 2.34 µM); in the experiment on Moraxella catarrhalis (setting [19]), 8 µg/mL (≈ 18.7 µM); in [8] (setting [20]), 1 µg/mL (≈ 2.34 µM).

Regarding `COC(=O)NC[C@H]1CN(c2ccc(-c3ccc(N4C=NOCC4)nc3)c(F)c2)C(=O)O1` [Compound 59], the MIC90 in experiment [1] (setting [9]) came out at 0.25 µg/mL (≈ 0.582 µM); in the experiment with Enterococcus faecalis (setting [10]) it was 0.5 µg/mL (≈ 1.16 µM); in experiment [2] (setting [11]), 4 µg/mL (≈ 9.32 µM); in experiment [3] (setting [12]), 4 µg/mL (≈ 9.32 µM); in experiment [4] (setting [13]) it was 0.25 µg/mL (≈ 0.582 µM); in experiment [5] (setting [14]) it was 0.5 µg/mL (≈ 1.16 µM). Moreover, the MIC90 in the experiment on Staphylococcus aureus (setting [15]) was determined as 0.25 µg/mL (≈ 0.582 µM); in experiment [6] (setting [16]), 4 µg/mL (≈ 9.32 µM); in [7] (setting [17]) it was 1 µg/mL (≈ 2.33 µM); with Enterococcus faecium (setting [18]), 0.25 µg/mL (≈ 0.582 µM); with Moraxella catarrhalis (setting [19]) it was 2 µg/mL (≈ 4.66 µM); in experiment [8] (setting [20]) it was 0.5 µg/mL (≈ 1.16 µM).

Turning to `O=C(CO)N1CCN(c2ccc(-c3ccc(N4C[C@H](CNc5ccon5)OC4=O)cc3F)cn2)C=N1` [Compound 41], the MIC90 in [1] (strain 9, E. faecium VanA) was determined as 0.5 µg/mL (≈ 1.01 µM); against Enterococcus faecalis (strain 5, E. faecalis) it was 0.5 µg/mL (≈ 1.01 µM); in [2] (strain 11, E. faecium VanA LR), 4 µg/mL (≈ 8.07 µM); in experiment [3] (strain 10, E. faecium VanA LR) it was 4 µg/mL (≈ 8.07 µM); in [4] (strain 3, S. epidermidis), 0.5 µg/mL (≈ 1.01 µM); in [5] (strain 2, S. aureus MR), 0.25 µg/mL (≈ 0.505 µM). For the same compound, the MIC90 in the experiment on Staphylococcus aureus (strain 1, S. aureus) was 0.25 µg/mL (≈ 0.505 µM); in [6] (strain 7, E. faecalis VanA LR), 2 µg/mL (≈ 4.04 µM); in [7] (strain 4, S. epidermidis MR), 2 µg/mL (≈ 4.04 µM); against Enterococcus faecium (strain 8, E. faecium), 0.125 µg/mL (≈ 0.252 µM); with Moraxella catarrhalis (strain 12, M. catarrhalis), 2 µg/mL (≈ 4.04 µM); in experiment [8] (strain 6, E. faecalis VanA) it was 1 µg/mL (≈ 2.02 µM).

In the case of `O=C1O[C@@H](Cn2ccnn2)CN1c1ccc(-c2ccc(N3C=NNCC3)nc2)c(F)c1` [Compound 30], the MIC90 in [1] (Enterococcus faecium) is 0.5 µg/mL (≈ 1.18 µM); against Enterococcus faecalis (Enterococcus faecalis), 0.5 µg/mL (≈ 1.18 µM); in [2] (Enterococcus faecium) it was 2 µg/mL (≈ 4.73 µM); in experiment [3] (Enterococcus faecium), 2 µg/mL (≈ 4.73 µM); in experiment [4] (Staphylococcus epidermidis), 0.5 µg/mL (≈ 1.18 µM); in experiment [5] (Staphylococcus aureus), 1 µg/mL (≈ 2.37 µM). Besides, the MIC90 against Staphylococcus aureus (Staphylococcus aureus) worked out at 0.25 µg/mL (≈ 0.592 µM); in experiment [6] (Enterococcus faecalis), 4 µg/mL (≈ 9.47 µM); in [7] (Staphylococcus epidermidis), 2 µg/mL (≈ 4.73 µM); with Enterococcus faecium (Enterococcus faecium), 0.25 µg/mL (≈ 0.592 µM); against Moraxella catarrhalis (Moraxella catarrhalis), 4 µg/mL (≈ 9.47 µM); in experiment [8] (Enterococcus faecalis), 1 µg/mL (≈ 2.37 µM).

For `CNC(=O)N1CCN(c2ccc(-c3ccc(N4C[C@H](Cn5ccnn5)OC4=O)cc3F)cn2)C=N1` [Compound 34], the MIC90 in experiment [1] (Enterococcus faecium) worked out at 0.5 µg/mL (≈ 1.04 µM); in the experiment with Enterococcus faecalis (Enterococcus faecalis), 0.5 µg/mL (≈ 1.04 µM); in [2] (Enterococcus faecium), 4 µg/mL (≈ 8.34 µM); in experiment [3] (Enterococcus faecium) it was 2 µg/mL (≈ 4.17 µM); in experiment [4] (Staphylococcus epidermidis), 0.5 µg/mL (≈ 1.04 µM); in experiment [5] (Staphylococcus aureus) it was 0.5 µg/mL (≈ 1.04 µM). The MIC90 amounted to 0.25 µg/mL (≈ 0.521 µM) against Staphylococcus aureus (Staphylococcus aureus); 2 µg/mL (≈ 4.17 µM) in experiment [6] (Enterococcus faecalis); 1 µg/mL (≈ 2.09 µM) in [7] (Staphylococcus epidermidis); 0.25 µg/mL (≈ 0.521 µM) against Enterococcus faecium (Enterococcus faecium); 2 µg/mL (≈ 4.17 µM) with Moraxella catarrhalis (Moraxella catarrhalis); 0.5 µg/mL (≈ 1.04 µM) in [8] (Enterococcus faecalis).
